Measured values taken from patent US11156599B2, “Assay for telomere length regulators” (The Johns Hopkins University, priority 2015, dated 2021).

How the values were obtained:
[1] = tested on: ATM kinase-dependent signaling pathway (Kap1-S824 phosphorylation); test: Western blot of phosphorylated Kap1 (ATM substrate); format: cell-based, mouse
Source text: Having established the robust ADDIT assay that can measure telomere elongation over one cell cycle, it was desired to examine whether the ATM kinase activity is required for telomere elongation. Two different methods were used to inhibit ATM: the ATM specific inhibitor KU55933 and siRNA knockdown. To confirm the inhibition of ATM kinase activity, the phosphorylation level of ATM substrate Kap1 as well as ATR kinase substrate Chk1 was examined by western blot. Cultured cells were pretreated with KU55933, siATM or DMSO control and later exposed to a DNA damaging reagent Camptothecin (CPT).
To detect phospho-proteins, 1× lysis buffer made of final concentration of 1× RIPA (Cell Signaling, #98016S), 1× protease inhibitor cocktail, 1× PhosSTOP™ (Roche, #4906845001) was added directly to cells on the dish after washing with cold 1× PBS. Protein concentration was measured with a BCA protein assay kit (Thermo, #23227). Typically 10 μg of protein from each sample was applied to SDS-PAGE gels, 4-15% Mini-PROTEAN TGX™ gels (Biorad, #456-1084), and transferred to nitrocellulose membranes in transfer buffer. […] Band intensities were quantified using the Odyssey™ software (LI-COR) and normalized to Actin levels. […]

human HCT116 cells = test: Telomere length in continuously growing HCT116 cells; format: cell-based; conditions: KU55933
SL13 cells = test: Telomere Southern blot after telomerase (mTR and mTERT) overexpression; format: cell-based, mouse; conditions: lentivirus expressing mTR and mTERT, 2 or 5 days in culture
Protocol: To examine the role of ATM in telomere elongation by an independent method, telomerase was overexpressed in the cell line, in the presence of ATM inhibition. It has been shown that overexpressing telomerase elongates telomere lengths in human cells. Cells were treated with KU55933 and then transduced with a lentivirus expressing both mTR and mTERT and grown for 2 or 5 days in culture and telomere lengths were assayed by Southern blot. Telomere lengths in cells overexpressing telomerase were rapidly elongated in just 5 days (data not shown). […] In addition, as discussed below, when cells are grown for several days, ATR may also compensate for the loss of ATM. […]
To measure telomere lengths by Southern blot, genomic DNA was extracted from cell pellets collected at different population doublings using the Puregene Core Kit A™ (Qiagen). […] Labeled probe was counted and 10^6 counts/ml (telomere probe) or 10^4 counts/ml (ladder) was denatured at 100° C. for 5 minutes and added to the pre-hybridization solution and hybridized overnight at 65° C. Membranes were washed 3× 15 minutes each in 6× SSC and 1% SDS at 65° C., and 3× 15 minutes each in 1× SSC and 1% SDS at 65° C. and exposed to a phosphorimager screen and detected on a Fuji phosphorimager. […]

With O=C(c1cc(Cc2n[nH]c(=O)c3ccccc23)ccc1F)N1CCN(C(=O)C2CC2)CC1 [Olaparib] the “increased level of Kap1 phosphorylation compared to DMSO-treated control cells” value ([1]; Olaparib treated cells) was 5 fold.

O=c1cc(-c2cccc3c2Sc2ccccc2S3)oc(N2CCOCC2)c1 [KU55933] was tested, and the “telomere lengths with increasing cell PDs” value (human HCT116 cells) was “shortened significantly”, the “telomere elongation by telomerase overexpression” value (SL13 cells) was “significantly blocked the telomere elongation” and the Kap1-S824 phosphorylation ([1]; pretreated, later exposed to Camptothecin (CPT), western blot) was “blocked Kap1 phosphorylation”.
